Consider one substance from US9011927B2, “Pentablock polymers” (The Curators of the University of Missouri, priority 2010, dated 2015).

Format in all cases: cell-based
The subject of data set [1] is SIRC (rabbit corneal cell line). Description: MTS assay on Pentablock Polymer A, SIRC. The settings on record: Triton X positive control. As to the method:
(§1) The cytotoxicity and biocompatibility of the Pentablock Polymer A and Pentablock Polymer B were investigated in several cell lines. ARPE-19 (human retinal pigment epithelial cell line), SIRC (rabbit corneal cell line), and RAW 264.7 (mouse macrophage cell line) were obtained from American Type Culture Collection (“ATCC”). ARPE-19 cells were cultured in Dubelcco's modified Eagle's medium (“DMEM/F12”) supplemented with 10% fetal bovine serum (“FBS”), 100 U/mL penicillin and 100 μg/mL of streptomycin. SIRC cells were cultured in minimum essential medium (“MEM”) and supplemented with 10% FBS, 100 U/mL of penicillin and 100 μg/mL of streptomycin. RAW 264.7 (Mouse macrophage cells) cells were cultured in DMEM/F12supplemented with 10% FBS, 10% of nonessential amino acids, 100 U/mL penicillin and 100 μg/mL of streptomycin. The pH of the medium was adjusted to 7.4 and cells were incubated in humidified atmosphere at 37° C. temperature with 5% CO2 environment. The cell cultures were exposed directly to different concentrations of Pentablock Polymer A and Pentablock Polymer B. […]
(§2) MTS assay is based on the reduction of the tetrazolium salt (yellow) to fromazone (purple) by mitochondrial enzymes of metabolic active cells. […] After incubation, the absorbance of each well was measured at 450 nm by ELISA plate reader. The absorbance is directly proportional to viability of cells.

Data set [2] has as its system RAW 264.7 (mouse macrophage cell line). Description: MTS assay on Pentablock Polymer A, RAW 264.7. The conditions noted are these: RAW 264.7, Triton X positive control. As to the method:
as §1, §2
On the technique in general: Formazan colour is commonly taken as a measure of viable cells.

The subject of the next data set is PCEC. Kind of data set: MTS assay on Pentablock Polymer B, PCEC. The settings on record: Triton X positive control. The protocol: Pentablock Polymer B: Cytotoxicity for Pentablock Polymer B was performed at different concentration ranging from 0.5-10 mg/ml. The plates were seeded with cell density of 10,000 cells/100 μL. After 24 hours of incubation fresh medium containing hydrogel of different concentration ranging from 0.5-10 mg/ml were added and further incubated for 24 hours. MTS assay is based on the reduction of the tetrazolium salt (yellow) to fromazone (purple) by mitochondrial enzymes of metabolic active cells. The amount of the fromazone is directly proportional to viable cells. In MTS assay Trioton X treated cells were served as […]. […] After incubation, the absorbance of each well was measured at 450 nm by ELISA plate reader. The absorbance is directly proportional to viability of cells.

For data set [3], the system named is ARPE-19 (human retinal pigment epithelial cell line). Description: MTS assay on Pentablock Polymer B, ARPE 19. The conditions noted are these: ARPE 19, Triton X positive control. As to the method: The cytotoxicity and biocompatibility of the Pentablock Polymer A and Pentablock Polymer B were investigated in several cell lines. ARPE-19 (human retinal pigment epithelial cell line), SIRC (rabbit corneal cell line), and RAW 264.7 (mouse macrophage cell line) were obtained from American Type Culture Collection (“ATCC”). ARPE-19 cells were cultured in Dubelcco's modified Eagle's medium (“DMEM/F12”) supplemented with 10% fetal bovine serum (“FBS”), 100 U/mL penicillin and 100 μg/mL of streptomycin. SIRC cells were cultured in minimum essential medium (“MEM”) and supplemented with 10% FBS, 100 U/mL of penicillin and 100 μg/mL of streptomycin. RAW 264.7 (Mouse macrophage cells) cells were cultured in DMEM/[…] with 10% FBS, 10% of nonessential amino acids, 100 U/mL penicillin and 100 μg/mL of streptomycin. […] The cell cultures were exposed directly to different concentrations of Pentablock Polymer A and Pentablock Polymer B. Pentablock Polymer B: Cytotoxicity for Pentablock Polymer B was performed at different concentration ranging from 0.5-10 mg/ml. The plates were seeded with cell density of 10,000 cells/100 μL. […] After incubation, the absorbance of each well was measured at 450 nm by ELISA plate reader. The absorbance is directly proportional to viability of cells.

Triton X: the “MTS assay (absorbance proportional to viability of cells)” value came to 0 in data set [1], 0 in data set [2], 0.000 in the data set on PCEC and 0.000 in data set [3].
